# Assay results published in patent publication US20230407377A1, “CRISPR/CAS SCREENING SYSTEM MATERIALS AND METHODS” (University of Copenhagen, priority 2020, published 2023).
# Key:
# SW620 (MLH1+/+) cells = assay: MUT:WT* ratio of MLH1 loss-of-function variants without or with 6-thioguanine; assay type: cell-based, human; settings: E448STOP, Q537STOP; 2 μM 6-thioguanine until Day 11
# From the text: Data represent ratios normalized to the value at Day 2 and are means of 3 independent experiments +/−SD. Two-tailed paired t-test were used to calculate the significance in all cases. NS=not significant. ** indicates p<0.01. *** indicates p<0.001. The figure and results are further described in the Examples.
# Cultures of human colon cancer SW620 (MLH1+/+) cells were nucleofected with SpCas9 protein and synthetic gRNA/tracrRNA targeting genomic sites in MLH1 overlapping the sites to be mutated along with an oligonucleotide comprising the mutation of interest (MUT), which was as a known loss-of-function variant (E448STOP or Q537STOP), and an oligonucleotide comprising a corresponding synonymous mutation (WT*). At Day 2 after nucleofection, an aliquot of the cell culture was analysed by PCR amplification of the genomic target site and NGS of the PCR product to determine the ratio of MUT to WT* alleles in the cell population. Thereafter, cells were split in two cultures, and cultured in the absence (−) or presence (+) of 2 μM 6-thioguanine until Day 11, where after the mutation analysis was repeated for each culture.
# [1] = test system: H358 cells xenografted into nude mice; assay: H358 xenograft in nude mice treated with vehicle or AMG 510: tumor volume and 12D versus 12C* ratio; assay type: in vivo; settings: treated once per day from two weeks after xenografting, versus vehicle
# Method: (A) A culture of human lung cancer H358 cells was nucleofected with SpCas9 protein and synthetic gRNA/tracrRNA targeting the oncogenic 12C mutation in KRAS present in these cells along with an oligonucleotide comprising the mutation of interest, which was another oncogenic KRAS mutation (12D), and an oligonucleotide comprising a synonymous mutation ([…]). At Day 2 after transfection, an aliquot of the cell culture was analysed by PCR amplification of the genomic target site and NGS of the PCR product to determine the ratio of 12D versus 12C* alleles in the cell population. […] (B) Determination of tumor volumes over time. (C) Representative mice photographed on day 40. […]
# A culture of human lung cancer H358 cells was nucleofected with SpCas9 protein and synthetic gRNA/tracrRNA targeting the oncogenic 12C mutation in KRAS present in these cells along with an oligonucleotide comprising the mutation of interest, which was another oncogenic KRAS mutation (12D), and an oligonucleotide comprising a synonymous mutation (12C*). At Day 2 after transfection, an aliquot of the cell culture was analysed by PCR amplification of the genomic target site and NGS of the PCR product to determine the ratio of 12D versus 12C* alleles in the cell population. […] (B) Tumor volumes were determined over time and, (C) representative mice photographed on day 40.
# Hep3B cells = assay: FGFR4 550M to WT* ratio in cells cultured without or with Fisogatinib; assay type: cell-based, human; settings: 0.72 μM Fisogatinib until Day 16; ratios normalized to Day 2
# From the text: Data represent ratios normalized to the value at Day 2 and are means of 3 independent experiments +/−SD. Two-tailed paired t-tests were used to calculate the significance in all cases. NS=not significant. ** indicates p<0.01. The figure and results are further described in the Examples.
# Cultures of human liver cancer Hep3B cells, which harbor FGF19 focal amplification, were nucleofected with SpCas9 protein and synthetic gRNA/tracrRNA targeting a genomic site overlapping the site to be mutated along with an oligonucleotide comprising the mutation of interest (V550M) in the Fisogatinib-binding site of FGFR4 and an oligonucleotide comprising a synonymous mutation (WT*). At Day 2 after nucleofection, an aliquot of the cell culture was analysed by PCR amplification of the genomic target site and NGS of the PCR product to determine the ratio of 550M to WT* alleles in the cell population. Thereafter, cells were split in two cultures, and cultured in the absence (−) or presence (+) of 0.72 μM Fisogatinib until Day 16, whereafter the mutation analysis was repeated on each culture. […] Such applications of the method are important for clinical management as well as for drug development in the pharmaceutical industry.
# MCF10A (ATM+/+) cells = assay: MUT:WT* ratio of ATM loss-of-function variants without or with Talazoparib; assay type: cell-based, human; settings: R23STOP, Q218STOP, E365STOP; 2 nM Talazoparib until Day 12
# From the text: Data represent ratios normalized to the value at Day 2 and show a representative experiment. The figure and results are further described in the Examples.
# Cultures of human breast epithelial MCF10A (ATM+/+) cells expressing SpCas9 were transfected with synthetic gRNA/tracrRNA targeting genomic sites in ATM overlapping the sites to be mutated along with an oligonucleotide comprising the mutation of interest (MUT), which was as known loss-of-function variants (R23STOP, Q218STOP or E365STOP), and an oligonucleotide comprising a corresponding synonymous mutation (WT*). At Day 2 after transfection, an aliquot of each culture was analysed by PCR amplification of the genomic target site and NGS of the PCR product to determine the ratio of MUT to WT* alleles in the cell population. Thereafter, cells were cultured in the absence (−) or presence (+) of 2 nM Talazoparib (a PARP inhibitor) until Day 12, where after the mutation analysis was repeated.
# MCF10A-BRCA2+/− cells = assay: MUT:WT* ratio of BRCA2 variants in cells cultured without or with PARP inhibitor; assay type: cell-based, human; settings: 2 nM Talazoparib until Day 12, ratios normalized to Day 2
# Method: At Day 2 after transfection, an aliquot of each culture was analysed by PCR amplification of the genomic target site and NGS of the PCR product to determine the ratio of MUT to WT* alleles in the cell population. Thereafter, cells were cultured in the absence or presence of 2 nM Talazoparib (a PARP inhibitor) until Day 12, whereafter the mutation analysis was repeated. Data represent ratios
# normalized to the value at Day 2 and are means of 3 independent experiments +/−SD. Two-tailed unpaired t-tests were used to calculate the significance in all cases. NS=not significant. ** indicates p<0.01. **** indicates p<0.0001.
# BRCA2 loss-of-function mutations sensitize cells to inhibitors of PARP, which are used in clinical trials/in the clinic as a synthetic lethal personalized therapy for cancer patients with BRCA inactivating mutations. We analysed one neutral BRCA2 mutation (D946V) and two loss-of-function BRCA2 mutations (I2627N, Y2660C) in breast epithelial MCF10A-BRCA2+/− cells cultured in the absence or presence of PARP inhibitor. […] Furthermore, the method will thereby also be useful for the purpose of drug development, drug testing and stratification of cancer patients in clinical trials with new drugs.
smiles,measurement,setting,value
Nc1nc2nc[nH]c2c(=S)[nH]1 [6-thioguanine],ability of MLH1 to elicit apoptosis in response to 6-thioguanine in cells with loss-of-function mutations,SW620 (MLH1+/+) cells,disabled
C=CC(=O)N1CCN(c2nc(=O)n(-c3c(C)ccnc3C(C)C)c3nc(-c4c(O)cccc4F)c(F)cc23)[C@@H](C)C1 [AMG 510],bulk tumor size (tumor volumes over time),[1],greatly reduced
C=CC(=O)N[C@H]1CCOC[C@H]1Nc1ncc2cc(-c3c(Cl)c(OC)cc(OC)c3Cl)ccc2n1 [Fisogatinib],selection of cells harboring the FGFR4-V550M mutation relative to WT* (resistance),Hep3B cells,strongly selected for
Cn1ncnc1[C@H]1c2n[nH]c(=O)c3cc(F)cc(c23)N[C@@H]1c1ccc(F)cc1 [Talazoparib],sensitivity of cells with loss-of-function ATM mutations to PARP inhibitor killing,MCF10A (ATM+/+) cells,sensitized them to PARP inhibitor killing
same,effect on cells with the neutral BRCA2 mutation (MUT:WT* ratio),MCF10A-BRCA2+/− cells; D946V,no effect
same,cell proliferation and/or survival of cells with the loss-of-function BRCA2 mutations,"MCF10A-BRCA2+/− cells; I2627N, Y2660C",greatly decreased
